Laboratory results: paper PMC6149683, “In Vitro Investigation of the Interaction of Tolbutamide and Losartan with Human Serum Albumin in Hyperglycemia States” (Molecules : A Journal of Synthetic Chemistry and Natural …, 2017)
Read-outs that look alike come from different tables or passages of the source.

Tests used:
[1] = system: T1, non-glycated (HSA) and glycated (gHSAFRC) human serum albumin, Sudlow's site I and II; assay: Binding of fluorescent site-marker probes to glycated versus non-glycated albumin (fluorimetric titration)
T1 construct: human serum albumin (HSA, Lot No. 8234H) with fatty acids (fraction V) was purchased from MP Biomedicals LLC; purchased MP Biomedicals LLC (Illkirch, France) Lot No. 8234H (a lot number; no catalogue number given)

plasma protein = details: cited from earlier work
[2] = albumin 5 × 10^−6 mol∙L^−1 titrated with probe, 37 °C, Figure 7

| Compound | probe fluorescence / binding with gHSAFRC compared with HSA [1, 2] | further results |
| --- | --- | --- |
| CN(C)c1cccc2c(S(N)(=O)=O)cccc12 [DNSA, 5-dimethylaminonaphthalene-1-sulfonamide] | no significant difference in the fluorescence intensity | – |
| CCCCc1nc(Cl)c(CO)n1Cc1ccc(-c2ccccc2-c2nn[nH]n2)cc1 [LOS, (2-butyl-4-chloro-1-{[2′-(1H-tetrazol-5-yl)-4-biphenylyl]methyl}-1H-imidazol-5-yl)methanol] | – | bound with plasma protein (plasma protein): 98.6–98.8% |
| CC(=O)CC(c1ccccc1)c1c(O)c2ccccc2oc1=O (centres unmarked) [WAR, warfarin] | – | probe fluorescence / binding with gHSAFRC compared with HSA [1]: stronger than with non-glycated albumin |
| CN(C)c1cccc2c(S(=O)(=O)N[C@@H](CCC(N)=O)C(=O)O)cccc12 [dGln, dansyl-L-glutamine] | stronger for glycated than non-modified albumin | – |
| CN(C)c1cccc2c(S(=O)(=O)N3CCC[C@H]3C(=O)O)cccc12 [dPro, N-dansyl-L-proline] | stronger for glycated than non-modified albumin | – |
